Converted amounts (≈) assume the structure as drawn. Read-outs that look alike come from different tables or passages of the source.
Columns and labels:
[1] = system: Pseudomonas aeruginosa CCM 1961; assay: Antibacterial microdilution broth, PA; assay type: cell-based; settings: Pseudomonas aeruginosa, read-out: MIC PA
[2] = system: Staphylococcus aureus H 5996/08 methicillin resistant; assay: microbe, parasite or virus in culture; assay type: cell-based; settings: for MIC: Staphylococcus aureus, MRSA, read-out: MIC MRSA
[3] = system: Mycobacterium smegmatis CCM 4622 (ATCC 607); assay: Antimycobacterial microdilution, M. smegmatis; assay type: cell-based; settings: Mycolicibacterium smegmatis, read-out: M. smeg. ATCC 607 MIC
[4] = system: Mycobacterium tuberculosis H37Rv CNCTC My 331/88 (ATCC 27294); assay: Antimycobacterial microdilution MABA, M. tuberculosis; assay type: cell-based; settings: for Mtb H37Rv ATCC 27294 MIC: Middlebrook 7H9 with OADC growth supplement, pH = 6.6, MABA; for MIC: Mycobacterium tuberculosis, read-out: Mtb H37Rv ATCC 27294 MIC, Middlebrook 7H9 with OADC growth supplement, pH = 6.6, MABA
[5] = system: Aspergillus fumigatus 231; assay: Antifungal microdilution broth, AF; assay type: cell-based; settings: read-out: MIC AF
[6] = system: Enterococcus sp. J 14365/08; assay: Antibacterial microdilution broth, EF; assay type: cell-based; settings: Enterococcus, read-out: MIC EF
[7] = system: Candida albicans ATCC 44859; assay: Antifungal microdilution broth, CA; assay type: cell-based; settings: Candida albicans, read-out: MIC CA
[8] = system: Lichtheimia corymbifera 272; assay: Antifungal microdilution broth, LC; assay type: cell-based; settings: read-out: MIC LC
[9] = system: M. avium ssp. avium CNCTC My 80/72 (ATCC 15769); assay: Antimycobacterial microdilution MABA, M. avium; assay type: cell-based, Mycobacterium avium; settings: Mycobacterium avium, ATCC15769, pH 6.6, read-out: M. avium ATCC 15769 MIC
Candida tropicalis 156 = assay: Antifungal microdilution broth, CT; assay type: cell-based; settings: read-out: MIC CT
Candida krusei E28 = assay: Antifungal microdilution broth, CK; assay type: cell-based; settings: Pichia kudriavzevii, read-out: MIC CK
[10] = system: Trichophyton interdigitale 445; assay: Antifungal microdilution broth, TI; assay type: cell-based; settings: read-out: MIC TI
[11] = system: Staphylococcus epidermidis H 6966/08; assay: Antibacterial microdilution broth, SE; assay type: cell-based; settings: read-out: MIC SE
Trichosporon asahii 1188 = assay: Antifungal microdilution broth, TA; assay type: cell-based; settings: read-out: MIC TA
Candida glabrata 20/I = assay: Antifungal microdilution broth, CG; assay type: cell-based; settings: Nakaseomyces glabratus, 20/I, read-out: MIC CG
[12] = system: Staphylococcus aureus CCM 4516/08; assay: Antibacterial microdilution broth, SA; assay type: cell-based
[13] = system: M. kansasii CNCTC My 235/80 (ATCC 12478); assay: Antimycobacterial microdilution MABA, M. kansasii; assay type: cell-based, Mycobacterium kansasii; settings: Mycobacterium kansasii, ATCC12478, pH 6.6, read-out: M. kans. ATCC 12478 MIC, Middlebrook 7H9 with OADC, pH 6.6, MABA
[14] = system: Escherichia coli CCM 4517; assay: Antibacterial microdilution broth, EC; assay type: cell-based; settings: Escherichia coli, read-out: MIC EC
[15] = Aspergillus fumigatus, 231, 24 h
[16] = Aspergillus fumigatus, 231, 48 h
[17] = Lichtheimia corymbifera, 272, 24 h
[18] = Lichtheimia corymbifera, 272, 48 h
[19] = Trichophyton interdigitale, 445, 72 h
[20] = Trichophyton interdigitale, 445, 120 h
[21] = Staphylococcus epidermidis, H6966/08, 24 h
[22] = Staphylococcus epidermidis, H6966/08, 48 h
[23] = Trichosporon asahii, 1188, 24 h
[24] = Trichosporon asahii, 1188, 48 h
[25] = Staphylococcus aureus, CCM4516, 24 h, read-out: MIC SA, 24 h
[26] = Staphylococcus aureus, CCM4516, 48 h, read-out: MIC SA, 48 h

| SMILES | MIC ([1]; CCM1961, 72 h) [µM] | MIC ([1]; CCM1961, 120 h) [µM] | MIC ([2]; 24 h) [µM] | MIC ([2]; 48 h) [µM] | MIC [3] [µg/mL] | MIC [4] [µg/mL] | MIC [5, 15] [µM] | MIC [5, 16] [µM] | MIC ([6]; SP.J14365/08, 24 h) [µM] | MIC ([6]; SP.J14365/08, 48 h) [µM] | MIC ([7]; ATCC44859, 24 h) [µM] | MIC ([7]; ATCC44859, 48 h) [µM] | MIC [8, 17] [µM] | MIC [8, 18] [µM] | MIC [9] [µg/mL] | MIC (Candida tropicalis 156; Candida tropicalis, 156, 24 h) [µM] | MIC (Candida tropicalis 156; Candida tropicalis, 156, 48 h) [µM] | MIC (Candida krusei E28; E28, 24 h) [µM] | MIC (Candida krusei E28; E28, 48 h) [µM] | MIC [10, 19] [µM] | also measured |
| --- | --- | --- | --- | --- | --- | --- | --- | --- | --- | --- | --- | --- | --- | --- | --- | --- | --- | --- | --- | --- | --- |
| O=C(Nc1cncc(Cl)n1)c1ccccc1Cl [Compound 3j] | > 500 | > 500 | > 500 | > 500 | ≥ 500 | > 100 | > 500 | > 500 | > 500 | > 500 | > 500 | > 500 | > 500 | > 500 | > 100 | > 500 | > 500 | > 500 | > 500 | > 500 | Mtb H37Rv ATCC 27294 MIC [4]: >100 µg/mL; MIC [10, 20]: > 500 µM; MIC [11, 21]: > 500 µM; MIC [11, 22]: > 500 µM; MIC (Trichosporon asahii 1188; [23]): > 500 µM; MIC (Trichosporon asahii 1188; [24]): > 500 µM; MIC (Candida glabrata 20/I; 24 h): > 500 µM; MIC (Candida glabrata 20/I; 48 h): > 500 µM; MIC [12, 25]: > 500 µM; MIC [12, 26]: > 500 µM; MIC [13]: > 100 µg/mL; MIC ([14]; CCM4517, 24 h): > 500 µM; MIC ([14]; CCM4517, 48 h): > 500 µM |
| O=C(Nc1cnc(Cl)cn1)c1ccccc1Cl [Compound 2j] | > 500 | > 500 | > 500 | > 500 | ≥ 500 | > 100 | > 500 | > 500 | > 500 | > 500 | > 500 | > 500 | > 500 | > 500 | > 100 | > 500 | > 500 | > 500 | > 500 | > 500 | MIC MRSA ([2]; 24 h): >500 µM; MIC MRSA ([2]; 48 h): >500 µM; Mtb H37Rv ATCC 27294 MIC [4]: >100 µg/mL; MIC [10, 20]: > 500 µM; MIC ([11]; 24 h): >500 µM; MIC ([11]; 48 h): >500 µM; MIC [11, 21]: > 500 µM; MIC [11, 22]: > 500 µM; MIC (Trichosporon asahii 1188; [23]): > 500 µM; MIC (Trichosporon asahii 1188; [24]): > 500 µM; MIC (Candida glabrata 20/I; 24 h): > 500 µM; MIC (Candida glabrata 20/I; 48 h): > 500 µM; MIC ([12]; 24 h, read-out: MIC SA): 62.50 µM (≈ 16.8 µg/mL); MIC ([12]; 48 h, read-out: MIC SA): 62.50 µM (≈ 16.8 µg/mL); MIC [12, 25]: 62.5 µM (≈ 16.8 µg/mL); MIC [12, 26]: 62.5 µM (≈ 16.8 µg/mL); MIC [13]: > 100 µg/mL; MIC ([14]; CCM4517, 24 h): > 500 µM; MIC ([14]; CCM4517, 48 h): > 500 µM |
| COc1cccc(C(=O)Nc2cnccn2)c1 [Compound 1f] | > 500 | > 500 | > 500 | > 500 | ≥ 500 | > 100 | > 500 | > 500 | > 500 | > 500 | > 500 | > 500 | > 500 | > 500 | > 100 | > 500 | > 500 | > 500 | > 500 | > 500 | Mtb H37Rv ATCC 27294 MIC [4]: >100 µg/mL; MIC [10, 20]: > 500 µM; MIC [11, 21]: > 500 µM; MIC [11, 22]: > 500 µM; MIC (Trichosporon asahii 1188; [23]): > 500 µM; MIC (Trichosporon asahii 1188; [24]): > 500 µM; MIC (Candida glabrata 20/I; 24 h): > 500 µM; MIC (Candida glabrata 20/I; 48 h): > 500 µM; MIC [12, 25]: > 500 µM; MIC [12, 26]: > 500 µM; MIC [13]: > 100 µg/mL; MIC ([14]; CCM4517, 24 h): > 500 µM; MIC ([14]; CCM4517, 48 h): > 500 µM |
| O=C(Nc1cnccn1)c1cccc(C(F)(F)F)c1 [Compound 1n] | > 125 | > 125 | > 125 | > 125 | ≥ 500 | > 100 | > 125 | > 125 | > 125 | > 125 | > 125 | > 125 | > 125 | > 125 | > 100 | > 125 | > 125 | > 125 | > 125 | > 125 | MIC MRSA ([2]; 24 h): >125 µM; MIC MRSA ([2]; 48 h): >125 µM; Mtb H37Rv ATCC 27294 MIC [4]: >100 µg/mL; MIC [10, 20]: > 125 µM; MIC ([11]; 24 h): 62.50 µM (≈ 16.7 µg/mL); MIC ([11]; 48 h): 62.50 µM (≈ 16.7 µg/mL); MIC [11, 21]: 62.5 µM (≈ 16.7 µg/mL); MIC [11, 22]: 62.5 µM (≈ 16.7 µg/mL); MIC (Trichosporon asahii 1188; [23]): > 125 µM; MIC (Trichosporon asahii 1188; [24]): > 125 µM; MIC (Candida glabrata 20/I; 24 h): > 125 µM; MIC (Candida glabrata 20/I; 48 h): > 125 µM; MIC ([12]; 24 h, read-out: MIC SA): >125 µM; MIC ([12]; 48 h, read-out: MIC SA): >125 µM; MIC [12, 25]: > 125 µM; MIC [12, 26]: > 125 µM; MIC [13]: > 100 µg/mL; MIC ([14]; CCM4517, 24 h): > 125 µM; MIC ([14]; CCM4517, 48 h): > 125 µM |
| COc1cccc(C(=O)Nc2cnc(Cl)cn2)c1 [Compound 2f] | > 500 | > 500 | > 500 | > 500 | ≥ 500 | > 100 | > 500 | > 500 | > 500 | > 500 | 125 (≈ 33 µg/mL) | 500 (≈ 132 µg/mL) | > 500 | > 500 | > 100 | > 500 | > 500 | > 500 | > 500 | > 500 | MIC MRSA ([2]; 24 h): >500 µM; MIC MRSA ([2]; 48 h): >500 µM; MIC [10, 20]: > 500 µM; MIC ([11]; 24 h): >500 µM; MIC ([11]; 48 h): >500 µM; MIC [11, 21]: > 500 µM; MIC [11, 22]: > 500 µM; MIC (Trichosporon asahii 1188; [23]): > 500 µM; MIC (Trichosporon asahii 1188; [24]): > 500 µM; MIC (Candida glabrata 20/I; 24 h): > 500 µM; MIC (Candida glabrata 20/I; 48 h): > 500 µM; MIC [12, 25]: 31.2 µM (≈ 8.24 µg/mL); MIC [12, 26]: 31.2 µM (≈ 8.24 µg/mL); MIC [13]: > 100 µg/mL; MIC ([14]; CCM4517, 24 h): > 500 µM; MIC ([14]; CCM4517, 48 h): > 500 µM |
